The record followed here is paper PMC10304174, “Development of Zeise’s Salt Derivatives Bearing Substituted Acetylsalicylic Acid Substructures as Cytotoxic COX Inhibitors” (Pharmaceutics, 2023).

One data set relates to HT-29 cells. As to the kind of experiment: Crystal violet assay, antiproliferative effects in HT-29 cells. It counts as cell-based. Particulars: HT-29 (COX-1/2-positive), 72 h. Here is the method:
(§1) In order to investigate the cytotoxic effects in MCF-7 and HT-29 cells, an already published crystal violet assay was used. The cells (HT-29: 3 × 10^3 cells per well in 100 µL of medium; MCF-7: 2 × 10^3 cells per well in 100 µL of medium) were seeded in their exponential growth phase in completed DMEM into 96-well microtiter plates in quadruples. […] Cells were then fixed with a solution of 1% (v/v) glutaric dialdehyde in PBS. In order to determine the cell biomass, the chromatin of the attached cells was stained with crystal violet, and the bound dye was extracted with EtOH (70%). The absorbance was measured at 590 nm. Mean values ± SD of ≥2 independent experiments were calculated, and the activity of the complexes was expressed as the cell mass of the vehicle-treated control, which was set to 100%.
(§2) The compounds were investigated regarding their cytotoxicity (in vitro) employing an already published crystal violet assay. It is based on the quantification of the cell biomass of living cells by staining the chromatin. In order to evaluate the possible influence of COX inhibition on cell growth, Zeise’s salt derivatives were investigated comparatively in HT-29 and MCF-7 cell lines.

A further data set has as its system MCF-7 cells. Briefly: Crystal violet assay, antiproliferative effects in MCF-7 cells. To be noted: MCF-7 (COX-negative), 72 h. It counts as cell-based. Here is the method: as §1, §2
A short description of data set [1]: Complex stability by capillary electrophoresis (decrease of initial complex over time). It counts as physicochemical. To be noted: MeOH/water (50/50, v/v), 1 mM, 37 °C, CE. How it is done:
The analysis was performed as previously described. A 50 mM sodium tetraborate solution (pH = 9.3, adjusted with 1 M NaOH), served as background electrolyte (BGE). Washing of novel capillaries consecutively with 1 M NaOH (45 min), water (45 min), and BGE (45 min) was performed. The hydrodynamic injection mode was utilized to introduce the samples into the capillary (50 mbar for 2 s). The capillary was kept at 25 °C, and the autosampler was thermostatted at 37 °C with an external water bath. For separation, the voltage was set to 20 kV, and the detection was carried out at the wavelength of 230 nm. Before each measurement, flushing of the capillary with 0.1 M NaOH (3 min), water (3 min), and BGE (5 min) took place. The samples were dissolved in methanol (MeOH) and further diluted in equal parts by volume with water to give a final concentration of 1 mM. Triple determinations were performed, and the half-lives (τ½) are presented as mean ± SD of ≥3 independent experiments. Samples, washing solutions, and buffers were filtered through a membrane with 0.22 µm porosity and degassed by ultrasonication before use. To simplify the reaction dynamics from a possible second-order to pseudo-first-order, one of two reactants must be present in great excess (>10 to 25-fold). If this condition is fulfilled, logarithmic plotting of the gradual decrease in the other reactant’s concentration (or increase in the concentration of a product, respectively) against the time yields a straight line, and half-lives can be calculated.
An already-established method was used to study the stability of the X-ASA-Prop-PtCl3 and X-ASA-But-PtCl3 complexes. The degradation products were separated by capillary electrophoresis using a fused-silica capillary ([…] × 75 µm, effective length: 56 cm, capillary temperature: 25 °C) and a 50 mM tetraborate buffer (pH = 9.3) as BGE. For separation, the voltage was set to 20 kV and the compounds were detected at 230 nm. Benzoic acid was used as an internal standard. Exemplary electropherograms of each complex can be found in the Supplementary Material (Figures S1–S24).
The complexes (1 mM) were dissolved in MeOH or MeOH/water (50/50, v/v) and stored at 37 °C. The decrease in the initial amount of complex was monitored time-dependently by CE, and the half-life (τ½) was calculated (Table 2).

In a further data set the target is T1, COX-2 (Homo sapiens, UniProt P35354).
T1 construct: purchased Cayman Chemicals
T1 sequence (P35354 18-604): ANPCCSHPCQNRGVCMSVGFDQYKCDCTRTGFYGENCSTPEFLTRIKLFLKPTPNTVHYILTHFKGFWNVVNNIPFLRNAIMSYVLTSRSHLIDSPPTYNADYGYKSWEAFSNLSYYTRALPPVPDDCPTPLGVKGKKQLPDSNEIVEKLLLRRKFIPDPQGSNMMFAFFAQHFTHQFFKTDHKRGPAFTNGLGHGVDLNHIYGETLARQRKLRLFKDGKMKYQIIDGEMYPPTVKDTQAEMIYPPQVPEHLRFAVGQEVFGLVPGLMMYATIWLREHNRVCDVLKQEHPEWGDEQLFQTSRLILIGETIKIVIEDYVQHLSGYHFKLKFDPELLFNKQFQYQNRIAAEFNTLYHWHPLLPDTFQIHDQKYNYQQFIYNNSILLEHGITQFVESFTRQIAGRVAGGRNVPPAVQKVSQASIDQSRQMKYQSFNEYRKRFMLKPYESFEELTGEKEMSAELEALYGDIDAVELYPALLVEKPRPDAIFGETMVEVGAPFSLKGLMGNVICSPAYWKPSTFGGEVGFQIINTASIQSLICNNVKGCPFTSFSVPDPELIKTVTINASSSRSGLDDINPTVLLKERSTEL
As to the kind of experiment: COX Inhibitor Screening Assay (EIA) on isolated COX-2 isoenzyme. It counts as biochemical. Particulars: 1 µM, incubation 10 min. How it is done:
The incubation of the respective complexes with the isoenzymes was exactly 10 min. The values of COX inhibition were calculated as the mean of duplicates and shown as the mean ± SD of ≥2 independent experiments.

Bounds are passed on as bounds.

A word on the IC50: it is the concentration at which inhibition is half-maximal. Read a low IC50 as greater potency in that assay. `N.N.[Cl][Pt][Cl]` [Cisplatin, reference compound]: the half-maximal inhibitory concentration (IC50) in the data set with HT-29 cells is 2.6 ± 0.1 µM; in the data set on MCF-7 cells it was 3.7 ± 0.3 µM.
With `CC(=O)Oc1c(C)cccc1C(=O)OCC[CH]1[CH2][Pt-]1([Cl])([Cl])[Cl].[K+]` (stereo not drawn) [3-CH3-ASA-But-PtCl3, Potassium trichlorido[η^2-(but-3-en-1-yl)-2-acetoxy-3-methylbenzoate]platinate(II)], the figures for the IC50 with HT-29 cells and with MCF-7 cells were 18 ± 2.4 µM and 45.6 ± 7.2 µM, respectively. In addition, the “Half-life (τ½)” value in data set [1] came out at 45.9 ± 6.0 h.
As for `CC(=O)Oc1ccc(Cl)cc1C(=O)OCC[CH]1[CH2][Pt-]1([Cl])([Cl])[Cl].[K+]` (stereo not drawn) [5-Cl-ASA-But-PtCl3, Potassium trichlorido[η^2-(but-3-en-1-yl)-2-acetoxy-5-chlorobenzoate]platinate(II)], the results for the IC50 with HT-29 cells and in the data set on MCF-7 cells were 49.1 ± 6.2 µM and 28.2 ± 4.5 µM, respectively. Also, the “Half-life (τ½)” value in data set [1] was determined as 62.4 ± 1.6 h.
In the case of `CC(=O)Oc1c(Cl)cccc1C(=O)OCC[CH]1[CH2][Pt-]1([Cl])([Cl])[Cl].[K+]` (stereo not drawn) [3-Cl-ASA-But-PtCl3, Potassium trichlorido[η^2-(but-3-en-1-yl)-2-acetoxy-3-chlorobenzoate]platinate(II)], the IC50 with HT-29 cells came out at 43 ± 10.9 µM; in the data set on MCF-7 cells, 33.5 ± 1.9 µM. Moreover, in data set [1], the “Half-life (τ½)” value was determined as 47.0 ± 14.0 h.
For `CC(=O)Oc1cc(F)ccc1C(=O)OCC[CH]1[CH2][Pt-]1([Cl])([Cl])[Cl].[K+]` (stereo not drawn) [4-F-ASA-But-PtCl3, Potassium trichlorido[η^2-(but-3-en-1-yl)-2-acetoxy-4-fluorobenzoate]platinate(II)], in that order: 89.2 ± 3.5 µM, 105.9 ± 0.4 µM and 49.9 ± 4.5 h.
For `CC(=O)Oc1cccc(F)c1C(=O)OCC[CH]1[CH2][Pt-]1([Cl])([Cl])[Cl].[K+]` (stereo not drawn) [6-F-ASA-But-PtCl3, Potassium trichlorido[η^2-(but-3-en-1-yl)-2-acetoxy-6-fluorobenzoate]platinate(II)], in that order: 99.7 ± 0.4 µM, 92.6 ± 23.8 µM and 34.6 ± 1.5 h.
Regarding `CC(=O)Oc1cccc(Cl)c1C(=O)OCC[CH]1[CH2][Pt-]1([Cl])([Cl])[Cl].[K+]` (stereo not drawn) [6-Cl-ASA-But-PtCl3, Potassium trichlorido[η^2-(but-3-en-1-yl)-2-acetoxy-6-chlorobenzoate]platinate(II)], the values for the IC50 in the data set with HT-29 cells and in the data set with MCF-7 cells were 57.5 ± 19.2 µM and 42.3 ± 8.3 µM, respectively. The “Half-life (τ½)” value in data set [1] came out at 51.8 ± 7.7 h.
The matching figures for `CC(=O)Oc1cc(C)ccc1C(=O)OCC[CH]1[CH2][Pt-]1([Cl])([Cl])[Cl].[K+]` (stereo not drawn) [4-CH3-ASA-But-PtCl3, Potassium trichlorido[η^2-(but-3-en-1-yl)-2-acetoxy-4-methylbenzoate]platinate(II)]: 27.1 ± 1.5 µM, 38.8 ± 6.5 µM and 65.7 ± 7.2 h.
Take `CC(=O)Oc1cccc(C)c1C(=O)OC[CH]1[CH2][Pt-]1([Cl])([Cl])[Cl].[K+]` (stereo not drawn) [6-CH3-ASA-Prop-PtCl3, Potassium trichlorido[η^2-(prop-2-en-1-yl)-2-acetoxy-6-methylbenzoate]platinate(II)]: the IC50 in the data set on HT-29 cells is 27.4 ± 1.4 µM; in the data set with MCF-7 cells, 76.2 ± 1.4 µM. The “Half-life (τ½)” value in data set [1] is 0.747 ± 0.0183 h.
Take `CC(=O)Oc1ccc(F)cc1C(=O)OC[CH]1[CH2][Pt-]1([Cl])([Cl])[Cl].[K+]` (stereo not drawn) [5-F-ASA-Prop-PtCl3, Potassium trichlorido[η^2-(prop-2-en-1-yl)-2-acetoxy-5-fluorobenzoate]platinate(II)]: the IC50 in the data set with HT-29 cells amounted to 110 ± 21.7 µM; in the data set on MCF-7 cells, 106 ± 4.1 µM. Also, the “Half-life (τ½)” value in data set [1] worked out at 0.46 ± 0.02 h.
Regarding `CC(=O)Oc1cccc(F)c1C(=O)OC[CH]1[CH2][Pt-]1([Cl])([Cl])[Cl].[K+]` (stereo not drawn) [6-F-ASA-Prop-PtCl3, Potassium trichlorido[η^2-(prop-2-en-1-yl)-2-acetoxy-6-fluorobenzoate]platinate(II)], the results for the IC50 in the data set with HT-29 cells and in the data set on MCF-7 cells were 114 ± 7.1 µM and at least 200 µM, respectively. The “Half-life (τ½)” value in data set [1] turned out to be 0.485 ± 0.005 h.
Take `CC(=O)Oc1cc(F)ccc1C(=O)OC[CH]1[CH2][Pt-]1([Cl])([Cl])[Cl].[K+]` (stereo not drawn) [4-F-ASA-Prop-PtCl3, Potassium trichlorido[η^2-(prop-2-en-1-yl)-2-acetoxy-4-fluorobenzoate]platinate(II)]: the IC50 with HT-29 cells is 107 ± 3.1 µM; with MCF-7 cells, 150 ± 33.6 µM. In addition, at COX-2, the “Inhibition of COX-2” value came out at 17.5%. Besides, in data set [1], the “Half-life (τ½)” value came to 0.535 ± 0.0183 h.
`CC(=O)Oc1ccc(F)cc1C(=O)OCC[CH]1[CH2][Pt-]1([Cl])([Cl])[Cl].[K+]` (stereo not drawn) [5-F-ASA-But-PtCl3, Potassium trichlorido[η^2-(but-3-en-1-yl)-2-acetoxy-5-fluorobenzoate]platinate(II)]: the IC50 is 75.8 ± 13.2 µM in the data set with HT-29 cells and 93.8 ± 10.8 µM in the data set on MCF-7 cells. Moreover, the “Half-life (τ½)” value in data set [1] is 48.1 ± 4.3 h.
`CC(=O)Oc1c(F)cccc1C(=O)OCC[CH]1[CH2][Pt-]1([Cl])([Cl])[Cl].[K+]` (stereo not drawn) [3-F-ASA-But-PtCl3, Potassium trichlorido[η^2-(but-3-en-1-yl)-2-acetoxy-3-fluorobenzoate]platinate(II)]: the IC50 in the data set on HT-29 cells was 69.4 ± 1.5 µM; in the data set on MCF-7 cells, 97.4 ± 17.6 µM. For the same compound, the “Half-life (τ½)” value in data set [1] worked out at 51.9 ± 2.5 h.
The matching figures for `CC(=O)Oc1cccc(C)c1C(=O)OCC[CH]1[CH2][Pt-]1([Cl])([Cl])[Cl].[K+]` (stereo not drawn) [6-CH3-ASA-But-PtCl3, Potassium trichlorido[η^2-(but-3-en-1-yl)-2-acetoxy-6-methylbenzoate]platinate(II)]: 20.2 ± 0.2 µM, 35.3 ± 0.9 µM and 35.0 ± 3.7 h.
`CC(=O)Oc1c(C)cccc1C(=O)OC[CH]1[CH2][Pt-]1([Cl])([Cl])[Cl].[K+]` (stereo not drawn) [3-CH3-ASA-Prop-PtCl3, Potassium trichlorido[η^2-(prop-2-en-1-yl)-2-acetoxy-3-methylbenzoate]platinate(II)]: the IC50 in the data set with HT-29 cells came out at 27.8 ± 3.4 µM; with MCF-7 cells, 71.4 ± 3.1 µM. Also, the “Half-life (τ½)” value in data set [1] stood at 0.585 ± 0.0383 h.
For `CC(=O)Oc1cccc(Cl)c1C(=O)OC[CH]1[CH2][Pt-]1([Cl])([Cl])[Cl].[K+]` (stereo not drawn) [6-Cl-ASA-Prop-PtCl3, Potassium trichlorido[η^2-(prop-2-en-1-yl)-2-acetoxy-6-chlorobenzoate]platinate(II)], the IC50 in the data set with HT-29 cells is 38.4 ± 3.4 µM; in the data set with MCF-7 cells, 85.9 ± 9.2 µM. Besides, the “Half-life (τ½)” value in data set [1] was found to be 0.658 ± 0.0317 h.
